24 molecules from US11001590B2, “Pyrazolopyrimidine derivatives” (BAYER ANIMAL HEALTH GMBH, priority 2016, dated 2021) can be followed below.

In series [1] the test system is Nippostrongylus brasiliensis. The series can be described thus: In vitro assay 2: Nippostrongylus brasiliensis (NIPOBR), acetylcholine esterase readout. The note with it: adult worms, read-out: activity (reduction of AChE compared to negative control); for inhibition at 10 µg/mL: 10 μg/ml (10 ppm); for inhibition at 1 µg/mL: 1 μg/ml (1 ppm). How it is done:
In Vitro Assay 2: Nippostronqylus Brasiliensis (NIPOBR)
Adult Nippostrongylus brasiliensis were washed with saline buffer containing 100 U/ml penicillin, 0.1 mg/ml streptomycin and 2.5 μg/ml amphotericin B. Test compounds were dissolved in DMSO and worms were incubated in medium in a final concentration of 10 μg/ml (10 ppm) respectively 1 μg/ml (1 ppm). An aliquot of the medium was used to determine the acetylcholine esterase activity in comparison to a negative control. The principle of measuring acetylcholine esterase as readout for anthelmintic activity was described in Rapson et al (1986) and Rapson et al (1987).

Series [2] deals with Dirofilaria immitis microfilariae. As to the kind of experiment: In vitro assay 3: Dirofilaria immitis microfilariae (DIROIM L1), motility. Conditions: 72 h, reduction of motility vs negative control, 72 h incubation.
In a further series the test system is Cooperia curticei. The series can be described thus: In vitro assay 5: Cooperia curticei (COOPCU), larval mortality. Conditions: 120 h, read-out: activity (percentage of larval mortality).
Series [3] can be described thus: log P by HPLC on reversed phase columns (Method L0; [a] acidic, [b] neutral range).
Experimental: Calibration was done with straight-chain alkan-2-ones (with 3 to 16 carbon atoms) with known log P values (measurement of log P values using retention times with linear interpolation between successive alkanones). Lambda-max-values were determined using UV-spectra from 200 nm to 400 nm and the peak values of the chromatographic signals.
For another series, the target named is C. elegans Slo-1a (Caenorhabditis elegans, UniProt Q95V25). As to the kind of experiment: In vitro assay 1: C. elegans Slo-1a, action at a recombinant C. elegans CHO cell line (membrane potential measurement).
Series [4] has as its system Dirofilaria immitis third-stage larvae. The series can be described thus: In vitro assay 4: Dirofilaria immitis (DIROIM L4), motility of larvae. The note with it: 72 h.
Series [5] deals with Litomosoides sigmodontis third-stage larvae. As to the kind of experiment: In vitro assay 7: Litomosoides sigmodontis L3 (LTMOSI), motility. The note with it: 72 h, reduction of motility vs negative control, 72 h incubation.

Chain of C. elegans Slo-1a (Q95V25 whole entry): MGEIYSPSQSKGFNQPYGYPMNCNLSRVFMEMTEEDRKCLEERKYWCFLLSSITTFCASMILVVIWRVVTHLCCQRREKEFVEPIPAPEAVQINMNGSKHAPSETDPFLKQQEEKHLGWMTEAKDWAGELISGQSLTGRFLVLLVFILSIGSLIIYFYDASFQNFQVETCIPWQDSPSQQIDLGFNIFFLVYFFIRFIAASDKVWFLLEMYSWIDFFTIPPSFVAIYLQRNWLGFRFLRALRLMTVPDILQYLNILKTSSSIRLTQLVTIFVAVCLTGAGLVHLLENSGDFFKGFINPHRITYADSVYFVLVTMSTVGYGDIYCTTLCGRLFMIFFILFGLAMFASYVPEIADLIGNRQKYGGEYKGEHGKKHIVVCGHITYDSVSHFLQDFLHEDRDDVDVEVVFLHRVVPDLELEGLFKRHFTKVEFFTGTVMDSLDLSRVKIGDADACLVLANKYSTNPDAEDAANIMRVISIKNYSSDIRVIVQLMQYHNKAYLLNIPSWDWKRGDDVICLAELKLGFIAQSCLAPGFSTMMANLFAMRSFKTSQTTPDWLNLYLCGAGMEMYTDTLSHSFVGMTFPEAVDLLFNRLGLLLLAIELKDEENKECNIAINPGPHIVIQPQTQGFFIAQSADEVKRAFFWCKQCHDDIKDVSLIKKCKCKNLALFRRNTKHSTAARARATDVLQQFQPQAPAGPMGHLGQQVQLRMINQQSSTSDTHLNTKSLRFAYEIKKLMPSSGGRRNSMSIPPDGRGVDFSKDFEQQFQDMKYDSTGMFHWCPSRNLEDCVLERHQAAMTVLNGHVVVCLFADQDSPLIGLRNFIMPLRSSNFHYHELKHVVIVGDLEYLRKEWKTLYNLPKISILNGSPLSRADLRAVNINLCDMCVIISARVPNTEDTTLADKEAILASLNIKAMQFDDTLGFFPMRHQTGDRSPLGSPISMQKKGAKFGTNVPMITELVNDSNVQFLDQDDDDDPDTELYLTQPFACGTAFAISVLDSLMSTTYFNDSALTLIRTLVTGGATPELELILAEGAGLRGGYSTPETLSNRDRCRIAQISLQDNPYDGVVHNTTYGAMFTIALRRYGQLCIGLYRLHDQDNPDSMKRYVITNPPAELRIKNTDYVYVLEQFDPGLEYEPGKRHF
Experimental for Cooperia curticei: In Vitro Assay 5: Cooperia curticei (COOPCU)
Solvent: Dimethyl Sulfoxide
Approximately 40 nematode larvae (Cooperia curticei) are transferred into a test tube containing the compound solution.
After 5 days percentage of larval mortality is recorded. 100% efficacy means all larvae are killed; 0% efficacy means no larvae are killed.

For `Cc1nn2c(C3CC3)c(C(=O)N[C@H]3CCOc4ccccc43)cnc2c1-c1cccc(N(C)C)c1` [Example 453], the inhibition at 10 µg/mL in series [1] was more than 80%. The results for the EC50 (in series [2]; on C. elegans Slo-1a) were less than 1 µg/mL and 2.51 nM, respectively. Besides, the mortality – broadly, the share of the test organisms that died – at 20 ppm in the series with Cooperia curticei came to 80%. The chromatographic logP (commonly a lipophilicity value derived from retention on a column) in series [3] is 2.72.

As for `COc1cccc(-c2c(C)nn3c(C(C)C)c(C(=O)N[C@H]4CCOc5ccccc54)cnc23)c1F` [Example 184], the inhibition at 10 µg/mL in series [1] was more than 80%. In addition, the EC50 (commonly the concentration at which the effect is half-maximal) in series [2] was less than 0.1 µg/mL; in series [4] it was less than 0.1 µg/mL; in series [5], less than 0.1 µg/mL; at C. elegans Slo-1a, 3.16 nM. Besides, the chromatographic logP in series [3] came out at 2.84.

For the molecule `Cc1nn2c(C(C)C)c(C(=O)N[C@H]3CCOc4ccccc43)cnc2c1-c1cccc(C(F)(F)F)c1` [Example 6], the EC50 in series [2] was less than 1 µg/mL; in series [5], less than 1 µg/mL; at C. elegans Slo-1a, 12.6 nM. Moreover, the mortality at 20 ppm in the series with Cooperia curticei turned out to be 80%. The molecule also came in with a chromatographic logP in series [3] of 5.03.

With `Cc1nn2c(C(C)C)c(C(=O)N[C@H]3CCOc4ccccc43)cnc2c1-c1ncc(Cl)cc1Cl` [Example 208], the inhibition at 1 µg/mL in series [1] is more than 80%. In addition, the inhibition at 10 µg/mL in series [1] was more than 80%. In addition, the EC50 in series [2] was less than 0.1 µg/mL; in series [4], less than 0.1 µg/mL; in series [5], less than 0.1 µg/mL; on C. elegans Slo-1a, 1.58 nM. Further, the chromatographic logP in series [3] worked out at 4.27.

`Cc1nn2c(C(C)C)c(C(=O)N[C@H]3CCc4ccccc43)cnc2c1-c1cc(Cl)cc(Cl)c1F` [Example 261]: the inhibition at 1 µg/mL in series [1] was more than 80%. In addition, the inhibition at 10 µg/mL in series [1] was more than 80%. Moreover, the EC50 in series [2] was less than 0.1 µg/mL; in series [4], less than 0.1 µg/mL; on C. elegans Slo-1a it was 1.58 nM. In addition, the mortality at 20 ppm with Cooperia curticei is 80%. The molecule also had a chromatographic logP in series [3] of 5.65.

For the molecule `Cc1nn2c(C3CC3)c(C(=O)N[C@H]3CCOc4ccccc43)cnc2c1-c1cc(Cl)cc(Cl)c1Cl` [Example 538], the inhibition at 1 µg/mL in series [1] is more than 80%. Further, the EC50 is less than 0.1 µg/mL in series [2], less than 0.1 µg/mL in series [4], less than 0.1 µg/mL in series [5] and 0.316 nM on C. elegans Slo-1a. The molecule further gave a chromatographic logP in series [3] of 4.8.

Take `Cc1nn2c(C(C)C)c(C(=O)N[C@H]3CCOc4ccccc43)cnc2c1-c1cc(Cl)cc(C(F)(F)F)c1` [Example 240]: the inhibition at 1 µg/mL in series [1] is more than 80%. Further, the inhibition at 10 µg/mL in series [1] is more than 80%. For the same molecule, the EC50 was less than 1 µg/mL in series [2] and 5.01 nM on C. elegans Slo-1a. Besides, the mortality at 20 ppm with Cooperia curticei was found to be 90%. Also, the chromatographic logP in series [3] came out at 5.65.

Turning to `Cc1nn2c(C3CC3)c(C(=O)N[C@H]3CCc4ccccc43)cnc2c1-c1c(F)cccc1Cl` [Example 442], in series [1], the inhibition at 10 µg/mL is more than 80%. Moreover, the EC50 in series [2] was less than 0.1 µg/mL; in series [4], less than 0.1 µg/mL; in series [5], less than 0.1 µg/mL; on C. elegans Slo-1a it was 2 nM. The molecule also registered a chromatographic logP in series [3] of 3.89.

Turning to `Cc1nn2c(C(C)C)c(C(=O)N[C@H]3CCOc4ccccc43)cnc2c1-c1cc(Cl)cc(Cl)c1` [Example 152], in series [1], the inhibition at 1 µg/mL is more than 80%. The inhibition at 10 µg/mL in series [1] was more than 80%. Further, the EC50 in series [2] is less than 0.1 µg/mL; in series [4] it was less than 1 µg/mL; in series [5], less than 0.1 µg/mL; at C. elegans Slo-1a, 20 nM. The molecule further showed a chromatographic logP in series [3] of 5.84.

With `Cc1nn2c(C(C)C)c(C(=O)N[C@H]3CCOc4ccccc43)cnc2c1-c1c(F)cccc1Cl` [Example 130], in series [1], the inhibition at 10 µg/mL is more than 80%. Moreover, the EC50 was less than 0.1 µg/mL in series [2], less than 0.1 µg/mL in series [4], less than 0.1 µg/mL in series [5] and 3.98 nM at C. elegans Slo-1a. Besides, the chromatographic logP in series [3] came out at 4.44.

For `Cc1nn2c(C(C)C)c(C(=O)N[C@H]3CCOc4ccccc43)cnc2c1-c1c(Cl)ccc(F)c1F` [Example 258], the inhibition at 1 µg/mL in series [1] is more than 80%. In series [1], the inhibition at 10 µg/mL was more than 80%. Moreover, the EC50 in series [2] is less than 1 µg/mL; in series [4] it was less than 0.1 µg/mL; in series [5], less than 0.1 µg/mL; on C. elegans Slo-1a it was 1.58 nM. Moreover, the chromatographic logP in series [3] came to 4.46.

As to `Cc1nn2c(C(C)C)c(C(=O)N[C@H]3CCOc4ccccc43)cnc2c1-c1c(F)cccc1F` [Example 96], the inhibition at 10 µg/mL in series [1] is more than 80%. Besides, the EC50 in series [2] is less than 0.1 µg/mL; in series [4] it was less than 0.1 µg/mL; in series [5], less than 0.1 µg/mL; at C. elegans Slo-1a it was 3.98 nM. For the same molecule, the chromatographic logP in series [3] was determined as 4.13.

Take `Cc1nn2c(C(C)C)c(C(=O)N[C@H]3CCc4ccccc43)cnc2c1-c1cc(Cl)cc(C(F)(F)F)c1` [Example 317]: in series [1], the inhibition at 10 µg/mL is more than 80%. In addition, the EC50 in series [2] was less than 1 µg/mL; in series [4], less than 0.1 µg/mL; in series [5], less than 0.1 µg/mL; on C. elegans Slo-1a, 15.8 nM. Also, the chromatographic logP in series [3] was determined as 6.07.

As to `Cc1nn2c(C(C)C)c(C(=O)N[C@H]3CCc4ccccc43)cnc2c1-c1cccc(F)c1F` [Example 141], the inhibition at 10 µg/mL in series [1] was more than 80%. Further, the EC50 in series [2] is less than 0.1 µg/mL; in series [4], less than 0.1 µg/mL; in series [5] it was less than 0.1 µg/mL; at C. elegans Slo-1a, 7.94 nM. The same molecule showed a chromatographic logP in series [3] of 4.6.

With `Cc1nn2c(C(C)C)c(C(=O)N[C@H]3CCOc4ccccc43)cnc2c1-c1cccc(Cl)c1F` [Example 189], the inhibition at 10 µg/mL in series [1] is more than 80%. Moreover, the EC50 in series [2] was less than 0.1 µg/mL; in series [4] it was less than 0.1 µg/mL; in series [5], less than 0.1 µg/mL; at C. elegans Slo-1a, 1.26 nM. The chromatographic logP in series [3] was 4.72.

Turning to `COc1c(F)ccc(-c2c(C)nn3c(N4CCOCC4)c(C(=O)N[C@H]4CCOc5ccccc54)cnc23)c1F` [Example 533], the inhibition at 1 µg/mL in series [1] was more than 80%. The EC50 in series [2] was less than 0.1 µg/mL; in series [4], less than 0.1 µg/mL; in series [5], less than 0.1 µg/mL; on C. elegans Slo-1a it was 1.26 nM. In series [3], this molecule came in with a chromatographic logP of 4.46.

With `Cc1nn2c(C(C)C)c(C(=O)N[C@H]3CCc4ccccc43)cnc2c1-c1cccc(N(C)C)c1` [Example 299], the EC50 in series [2] is less than 0.1 µg/mL; at C. elegans Slo-1a, 15.8 nM. Besides, the mortality at 20 ppm with Cooperia curticei amounted to 80%. The chromatographic logP in series [3] amounted to 3.9.

On to `Cc1nn2c(C(C)C)c(C(=O)N[C@H]3CCc4ccccc43)cnc2c1-c1cc(Cl)c(F)c(Cl)c1` [Example 127], for which, in series [1], the inhibition at 10 µg/mL is more than 80%. Moreover, the EC50 in series [2] was less than 0.1 µg/mL; in series [4], less than 0.1 µg/mL; in series [5], less than 0.1 µg/mL; at C. elegans Slo-1a, 10 nM. Besides, the chromatographic logP in series [3] is 5.91.

Consider `Cc1nn2c(C(C)C)c(C(=O)N[C@H]3CCOc4ccccc43)cnc2c1-c1c(F)cc(F)cc1F` [Example 236], for which the inhibition at 1 µg/mL in series [1] is more than 80%. Further, the inhibition at 10 µg/mL in series [1] is more than 80%. The EC50 in series [2] is less than 1 µg/mL; in series [4], less than 0.1 µg/mL; in series [5] it was less than 0.1 µg/mL; at C. elegans Slo-1a it was 2 nM. The same molecule had a chromatographic logP in series [3] of 4.3.

Consider `Cc1nn2c(C3CC3)c(C(=O)N[C@H]3CCOc4ccccc43)cnc2c1-c1c(Cl)cccc1Cl` [Example 467], for which the inhibition at 10 µg/mL in series [1] is more than 80%. The EC50 in series [2] is less than 0.1 µg/mL; in series [4] it was less than 0.1 µg/mL; in series [5], less than 0.1 µg/mL; on C. elegans Slo-1a, 0.398 nM. In addition, the chromatographic logP in series [3] turned out to be 3.88.

On to `Cc1nn2c(C(C)C)c(C(=O)N[C@H]3CCOc4ccccc43)cnc2c1-c1cccc(Cl)c1Cl` [Example 170], for which the inhibition at 10 µg/mL in series [1] was more than 80%. The EC50 was less than 0.1 µg/mL in series [2], less than 0.1 µg/mL in series [4], less than 0.1 µg/mL in series [5] and 2 nM at C. elegans Slo-1a. The chromatographic logP in series [3] turned out to be 4.85.

With `COc1cc(Cl)cc(-c2c(C)nn3c(C(C)C)c(C(=O)N[C@H]4CCOc5ccccc54)cnc23)c1` [Example 403], the inhibition at 10 µg/mL in series [1] was more than 80%. In addition, the EC50 in series [2] was less than 0.1 µg/mL; in series [4] it was less than 0.1 µg/mL; in series [5], less than 0.1 µg/mL; at C. elegans Slo-1a, 158 nM. Besides, in series [3], the chromatographic logP came out at 4.96.

Turning to `Cc1nn2c(C(C)C)c(C(=O)N[C@H]3CCOc4ccccc43)cnc2c1-c1ccc(F)c(Cl)c1` [Example 186], in series [1], the inhibition at 10 µg/mL was more than 80%. Moreover, the EC50 in series [2] was less than 0.1 µg/mL; in series [4] it was less than 0.1 µg/mL; in series [5], less than 0.1 µg/mL; at C. elegans Slo-1a it was 15.8 nM. Further, the chromatographic logP in series [3] is 5.01.

As to `Cc1nn2c(C3CC3)c(C(=O)N[C@H]3CCOc4ccccc43)cnc2c1-c1ccc(F)cc1Cl` [Example 475], the inhibition at 1 µg/mL in series [1] is more than 80%. Moreover, the EC50 is less than 0.1 µg/mL in series [2], less than 0.1 µg/mL in series [4], less than 0.1 µg/mL in series [5] and 2 nM at C. elegans Slo-1a. The molecule also came in with a chromatographic logP in series [3] of 3.79.
